The values that follow come from ChEMBL document CHEMBL1201862, “PubChem BioAssay data set” (2004).

Holding throughout (experiment): NCI anticancer screen, dose series, 48 h
Assay [1] deals with HL-60.
Assay [2] has as its system Malme-3M.
The test system of assay [3] is SNB-75.
In assay [4] the test system is SNB-19.
For assay [5], the system named is MOLT-4.
For assay [6], the system named is BT-549.
For assay [7], the system named is KM12.
Assay [8] concerns T47D.
In assay [9] the test system is COLO 205.
Assay [10] relates to SN12C.
The subject of assay [11] is SF-295.
The subject of assay [12] is SK-MEL-5.
The test system of assay [13] is MCF7.
The test system of assay [14] is ACHN.
The subject of assay [15] is UACC-62.
Assay [16] deals with M14.
Assay [17] relates to NCI-H522.
Assay [18] deals with A498.
Assay [19] has as its system MDA-N.

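How tested: cells in 96-well plates exposed to compound for 48 hours at five concentrations. Abbreviation: GI50, concentration required for 50% inhibition of growth.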 Active and inactive are the calls of the source. Rule as the data show it: active = GI50 up to about 1.1 µM and inactive = higher. Bounds are passed on as bounds.

Consider `COC(=O)c1ccc(/C=C(\c2ccc([N+](=O)[O-])o2)S(=O)(=O)c2ccc(NC(C)=O)cc2)o1`, for which the GI50 is 3.03 µM (inactive) in assay [1]; 2.49 µM (inactive) in [2]; 19.3 µM (inactive) in assay [3]; 16.9 µM (inactive) in assay [4]; 2.83 µM (inactive) in assay [5]; 0.565 µM (active) in assay [6]. Also, the GI50 was 13.4 µM (inactive) in [7]; 18.4 µM (inactive) in assay [8]; 2.9 µM (inactive) in assay [9]; 0.0579 µM (active) in assay [10]; 17.5 µM (inactive) in [11]; 3.93 µM (inactive) in assay [12]. Also, the GI50 was 5.36 µM (inactive) in [13]; 3.09 µM (inactive) in assay [14]; 2 µM (inactive) in [15]; 4.14 µM (inactive) in assay [16]; 2.03 µM (inactive) in [17].

As to `Cc1ccc(/C=c2\cc3oc(=O)c4cccc(c4-3)c2=O)cc1`, the GI50 is 39.1 µM (inactive) in assay [1]; > 100 µM (inactive) in assay [18]; > 100 µM (inactive) in assay [2]; > 100 µM (inactive) in [3]; > 100 µM (inactive) in assay [4]; > 10 µM (inactive) in assay [5]. Further, the GI50 in assay [8], in assay [9], in assay [10], in assay [11], in assay [13] and in [14] was > 100 µM (inactive) throughout. The GI50 in assay [15] is > 100 µM (inactive); in assay [16] it was > 100 µM (inactive); in [17] it was 38.1 µM (inactive).

Consider `O=C(NCCS(=O)(=O)N1C(=O)C2CCCN2C(=O)[C@@H]1Cc1ccccc1)OCc1ccccc1` (stereo partly specified), for which the GI50 in [1] is 24.2 µM (inactive); in assay [18] it was 25.3 µM (inactive); in assay [2], 74 µM (inactive); in assay [3], 33.3 µM (inactive); in [4], 44.4 µM (inactive); in [5], 48 µM (inactive). For the same compound, the GI50 in assay [7] is 44.2 µM (inactive); in [9] it was 26.2 µM (inactive); in assay [10], 52.8 µM (inactive); in assay [11] it was 50 µM (inactive); in assay [12], 47.4 µM (inactive); in assay [14], 35 µM (inactive). For the same compound, the GI50 in assay [15] is 40 µM (inactive); in [16] it was 36 µM (inactive); in assay [17], 24.7 µM (inactive).

Turning to `COc1ccc(CC2c3cc(OC)c(OC)c(OC)c3CC[N+]2(C)C)cc1Oc1ccc(CC2c3cc4c(c(OC)c3CC[N+]2(C)C)OCO4)cc1` (stereo unspecified), the GI50 in assay [1] was > 100 µM (inactive); in [18], > 100 µM (inactive); in [2], > 100 µM (inactive); in [3] it was 91.6 µM (inactive); in assay [4], > 100 µM (inactive); in assay [5], > 100 µM (inactive). The GI50 in assay [6], in [7], in assay [8], in [9], in assay [10] and in assay [11] was > 100 µM (inactive) in each case. The GI50 in assay [12] is > 100 µM (inactive); in assay [13], 96.2 µM (inactive); in assay [14], > 100 µM (inactive); in [15], > 100 µM (inactive); in assay [16], > 100 µM (inactive); in assay [17], > 100 µM (inactive).

Consider `COc1ccc(CNc2nc3ccccc3nc2-c2cccs2)cc1`, for which the GI50 in [1] is 61.7 µM (inactive); in assay [18] it was 29.4 µM (inactive); in assay [2], 50.1 µM (inactive); in assay [3], > 100 µM (inactive); in assay [5], 5.31 µM (inactive); in assay [6] it was 22.1 µM (inactive). Moreover, the GI50 in assay [7] was 28.9 µM (inactive); in [8], 22.9 µM (inactive); in assay [9], 38.1 µM (inactive); in assay [11], 46.7 µM (inactive); in [12], 23.8 µM (inactive); in assay [13], 28.3 µM (inactive). The values for the GI50 in assay [14], in [15] and in [17] were 57.5 µM (inactive), 38.4 µM (inactive) and 23.5 µM (inactive), respectively.

As for `CC1=NN(c2nc(N)nc(CN3CCOCC3)n2)C(C)(C)C1`, the GI50 was 15.2 µM (inactive) in assay [1]; > 100 µM (inactive) in assay [18]; > 100 µM (inactive) in assay [3]; > 100 µM (inactive) in assay [4]; > 100 µM (inactive) in assay [5]; > 100 µM (inactive) in [6]. Besides, the GI50 in assay [7] is > 100 µM (inactive); in [8], > 100 µM (inactive); in assay [9], 60.4 µM (inactive); in [10], > 100 µM (inactive); in [11], > 100 µM (inactive); in assay [12] it was 73.3 µM (inactive). The GI50 in assay [13] was > 100 µM (inactive); in assay [14] it was 31.8 µM (inactive); in assay [15], 26.5 µM (inactive); in assay [16], > 100 µM (inactive); in assay [17], 14 µM (inactive).

On to `Cc1cc(=O)oc2c(CNC(CC(C)C)C(=O)O)c(O)ccc12` (stereo unspecified), for which the GI50 in [1] is > 100 µM (inactive); in [2], 87.5 µM (inactive); in [3] it was 39.7 µM (inactive); in [4], > 100 µM (inactive); in [5], > 100 µM (inactive); in assay [7] it was > 100 µM (inactive). Also, the GI50 in assay [8], in [19], in assay [9], in [10], in assay [11] and in assay [12] was > 100 µM (inactive) each time. Moreover, the GI50 in [13], in assay [14], in assay [15], in assay [16] and in assay [17] was > 100 µM (inactive) in each case.

As for `CC(C)[Si](OC12CCC(CC1O)CC2C(=O)O)(C(C)C)C(C)C` (stereo unspecified), the GI50 was 0.459 µM (active) in assay [1]; 15.3 µM (inactive) in [18]; 6.1 µM (inactive) in assay [3]; 15.6 µM (inactive) in assay [4]; 13.2 µM (inactive) in assay [5]; 12.4 µM (inactive) in assay [7]. In addition, the GI50 in [8] is 13.9 µM (inactive); in [19] it was 17 µM (inactive); in assay [9], 21.7 µM (inactive); in [10] it was 21.7 µM (inactive); in assay [11] it was 15.7 µM (inactive); in [12], 18.9 µM (inactive). For the same compound, the GI50 in [13] was 11.3 µM (inactive); in [14] it was 15.7 µM (inactive); in assay [15] it was 14 µM (inactive); in assay [16] it was 15.8 µM (inactive).

`O=C(OC1=CCN(Br)C1=O)C1=C(O)C(=O)N(Br)C1`: the GI50 was 24.5 µM (inactive) in assay [1]; > 100 µM (inactive) in assay [18]; 55 µM (inactive) in assay [2]; 24.3 µM (inactive) in assay [3]; 20.2 µM (inactive) in assay [4]; 22.8 µM (inactive) in assay [5]. Besides, the GI50 in assay [6] is 18.2 µM (inactive); in assay [7], 32.2 µM (inactive); in assay [8], 18.4 µM (inactive); in assay [9], 23.7 µM (inactive); in [10], 17.3 µM (inactive); in [11] it was 26.9 µM (inactive). For the same compound, the GI50 in assay [12] is 17.2 µM (inactive); in assay [13] it was 33 µM (inactive); in assay [14] it was 33.9 µM (inactive); in assay [15], 18.1 µM (inactive); in [16] it was 51.8 µM (inactive); in assay [17] it was 14.3 µM (inactive).

`O=C(O)CSc1nnc(COc2ccc(Cl)cc2)n1-c1ccccc1`: the GI50 in assay [1], in [18], in [2], in assay [3], in [4] and in assay [5] was > 100 µM (inactive) each time. Further, the GI50 in [7], in [8], in assay [19], in assay [9], in [10] and in assay [11] was > 100 µM (inactive) throughout. Further, the GI50 in assay [13], in assay [14], in assay [15], in [16] and in [17] was > 100 µM (inactive) in each case.

With `O=C(CCl)N1CCN(c2ccccc2)CC1`, the GI50 in [1] is 20 µM (inactive); in [18], 25.9 µM (inactive); in assay [2] it was 23.6 µM (inactive); in [3] it was 16.7 µM (inactive); in assay [4], 37.7 µM (inactive); in assay [5] it was 27.2 µM (inactive). Moreover, the GI50 in assay [7] is 19.3 µM (inactive); in assay [8], 21.9 µM (inactive); in assay [19], 22.6 µM (inactive); in [9] it was 21.5 µM (inactive); in assay [11], 19.1 µM (inactive); in assay [12], 16.3 µM (inactive). Further, the GI50 in assay [13] was 19.5 µM (inactive); in assay [14], 24.4 µM (inactive); in [16], 17.7 µM (inactive).

In the case of `Brc1cccc[n+]1-c1ccc2cc(-[n+]3ccccc3Br)ccc2c1`, the GI50 in assay [1] is 28.6 µM (inactive); in [18], > 100 µM (inactive); in [2] it was 23.1 µM (inactive); in assay [4] it was 72.8 µM (inactive); in assay [6] it was 97.9 µM (inactive); in assay [7] it was 20.8 µM (inactive). The GI50 is 22.3 µM (inactive) in assay [8]; 31 µM (inactive) in [9]; 42.4 µM (inactive) in [10]; 53.3 µM (inactive) in [11]; 77.3 µM (inactive) in assay [12]; 35.7 µM (inactive) in assay [13]. In addition, the GI50 in [14] is 17.7 µM (inactive); in assay [15], 45.1 µM (inactive); in assay [16] it was > 100 µM (inactive); in assay [17], 40.1 µM (inactive).
